What was measured:
[1] = system: bedstraw; assay: Test B pre/postemergence bedstraw; format: in vivo, Galium aparine; conditions: Postemergence
Outline: (§1)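 Herbicidal effect was estimated by eye on a ten-point control scale after plants spent twelve to sixteen days in a greenhouse following soil or foliar treatment. Foliar sprays targeted plants at one to four leaves; all doses were formulated in a non-phytotoxic solvent with surfactant.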

[2] = system: blackgrass; assay: Test B pre/postemergence blackgrass; format: in vivo, Alopecurus myosuroides
Outline: as §1

[3] = system: surinam grass; assay: Test B pre/postemergence surinam grass; format: in vivo, Brachiaria decumbens
Outline: as §1

[4] = system: cocklebur; assay: Test B pre/postemergence cocklebur; format: in vivo, Xanthium strumarium
Outline: as §1

[5] = system: crabgrass; assay: Test B pre/postemergence crabgrass; format: in vivo, Digitaria sanguinalis
Outline: as §1

[6] = system: giant foxtail; assay: Test B pre/postemergence giant foxtail; format: in vivo, Setaria faberii
Outline: as §1

[7] = system: morningglory; assay: Test B pre/postemergence morningglory; format: in vivo, Ipomoea hederacea
Outline: as §1

[8] = system: pigweed; assay: Test B pre/postemergence pigweed; format: in vivo, Amaranthus retroflexus
Outline: as §1

[9] = system: soybean; assay: Test B pre/postemergence soybean; format: in vivo, Glycine max
Outline: as §1

[10] = system: velvetleaf; assay: Test B pre/postemergence velvetleaf; format: in vivo, Abutilon theophrasti
Outline: as §1

[11] = system: wheat; assay: Test B pre/postemergence wheat; format: in vivo, Triticum aestivum
Outline: as §1

[12] = system: wild oat; assay: Test B pre/postemergence wild oat; format: in vivo, Avena fatua
Outline: as §1

[13] = system: purple nutsedge; assay: Test B pre/postemergence purple nutsedge; format: in vivo, Cyperus rotundus
Outline: as §1

[14] = system: rice; assay: Test B flood test rice; format: in vivo, Oryza sativa
Outline: (§2)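 Each value is a visual injury score relative to controls, with 10 meaning complete control and 0 no effect. Evaluation took place twelve to sixteen days after the 2-leaf-stage plants were treated and kept in the greenhouse.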

[15] = system: smallflower flatsedge; assay: Test B flood test smallflower flatsedge; format: in vivo, Cyperus difformis
Outline: as §2

[16] = system: bamyardgrass; assay: Test B flood test barnyardgrass; format: in vivo, Echinochloa crus-galli
Outline: as §2

[17] = Postemergence, Rate 125 g/ha, scale 0 to 10, 0 is no effect, 10 is complete control
[18] = Postemergence, Rate 250 g/ha, scale 0 to 10
[19] = Postemergence, Rate 500 g/ha, scale 0 to 10, 0 is no effect, 10 is complete control
[20] = Preemergence, Rate 62 g/ha, scale of 0 to 10 where 0 is no effect and 10 is complete control
[21] = Preemergence, Rate 125 g/ha, scale 0 to 10, 0 is no effect, 10 is complete control
[22] = Preemergence, Rate 250 g/ha, scale 0 to 10, 0 is no effect, 10 is complete control
[23] = Preemergence, Rate 500 g/ha, scale 0 to 10, 0 is no effect, 10 is complete control
[24] = Rate 62 g/ha, Postemergence, scale 0 to 10, 0 no effect, 10 complete control
[25] = Rate 62 g/ha, flood test species, Pre-emergence, visual evaluation after twelve to sixteen days
[26] = Rate 125 g/ha, under heading Pre-emergence, flood test species, visual evaluation after twelve to sixteen days
[27] = Rate 250 g/ha, Pre-emergence (flood test species), scale 0 to 10, 0 is no effect, 10 is complete control
[28] = Rate 500 g/ha, Pre-emergence section of Table B, 0 to 10 scale (0 no effect, 10 complete control)

Compound: CC(C)C(=O)Cn1c(=O)on(C(=O)N(c2ccc(F)cc2F)C(C)C)c1=O [Compound 486]
- Bedstraw plant response rating ([1]; Rate 125 g/ha, scale 0 to 10, 0 is no effect, 10 is complete control): 1
- Bedstraw plant response rating ([1]; Rate 250 g/ha, scale 0 to 10): 4
- Plant response rating, Bedstraw ([1]; Rate 500 g/ha, scale 0 to 10, 0 is no effect, 10 is complete control): 8
- Bedstraw plant response rating ([1]; Rate 62 g/ha, scale 0 to 10, 0 no effect, 10 complete control): 0
- Blackgrass plant response rating [2, 17]: 6
- Blackgrass plant response rating [2, 18]: 8
- Plant response rating, Blackgrass [2, 19]: 8
- Plant response rating, Blackgrass [2, 20]: 7
- Blackgrass plant response rating [2, 21]: 9
- Blackgrass plant response rating [2, 22]: 10
- Blackgrass plant response rating [2, 23]: 10
- Blackgrass plant response rating [2, 24]: 0
- B. signalgrass plant response rating [3, 17]: 0
- B. signalgrass plant response rating ([3]; Postemergence, Rate 250 g/ha, scale 0 to 10, 0 no effect, 10 complete control): 1
- Plant response rating, B. signalgrass [3, 19]: 5
- Plant response rating, B. signalgrass [3, 20]: 5
- B. signalgrass plant response rating [3, 21]: 5
- B. signalgrass plant response rating [3, 22]: 6
- B. signalgrass plant response rating [3, 23]: 8
- B. signalgrass plant response rating [3, 24]: 0
- Cocklebur plant response rating [4, 17]: 0
- Cocklebur plant response rating [4, 18]: 0
- Plant response rating, Cocklebur [4, 19]: 0
- Plant response rating, Cocklebur [4, 20]: 0
- Cocklebur plant response rating [4, 21]: 0
- Cocklebur plant response rating [4, 23]: 0
- Cocklebur plant response rating [4, 24]: 0
- Crabgrass plant response rating [5, 17]: 3
- Crabgrass plant response rating [5, 18]: 5
- Plant response rating, Crabgrass [5, 19]: 9
- Plant response rating, Crabgrass [5, 20]: 8
- Crabgrass plant response rating [5, 21]: 9
- Crabgrass plant response rating [5, 22]: 10
- Crabgrass plant response rating [5, 23]: 10
- Crabgrass plant response rating [5, 24]: 0
- Giant foxtail plant response rating [6, 17]: 7
- Plant response rating, Giant foxtail [6, 19]: 9
- Plant response rating, Giant foxtail [6, 20]: 9
- Giant foxtail plant response rating [6, 21]: 10
- Giant foxtail plant response rating [6, 22]: 10
- Giant foxtail plant response rating [6, 23]: 10
- Giant foxtail plant response rating [6, 24]: 2
- Morningglory plant response rating [7, 17]: 1
- Plant response rating, Morningglory [7, 19]: 2
- Plant response rating, Morningglory [7, 20]: 0
- Morningglory plant response rating [7, 21]: 0
- Morningglory plant response rating [7, 22]: 0
- Morningglory plant response rating [7, 23]: 0
- Morningglory plant response rating [7, 24]: 1
- Redroot pigweed plant response rating [8, 17]: 0
- Plant response rating, Redroot pigweed [8, 19]: 2
- Plant response rating, Redroot pigweed [8, 20]: 6
- Redroot pigweed plant response rating [8, 21]: 8
- Redroot pigweed plant response rating [8, 22]: 9
- Redroot pigweed plant response rating [8, 23]: 9
- Redroot pigweed plant response rating [8, 24]: 0
- Soybean plant response rating [9, 17]: 4
- Plant response rating, Soybean [9, 19]: 4
- Plant response rating, Soybean [9, 20]: 0
- Soybean plant response rating [9, 21]: 0
- Soybean plant response rating [9, 22]: 0
- Soybean plant response rating [9, 23]: 2
- Soybean plant response rating [9, 24]: 4
- Velvetleaf plant response rating [10, 17]: 0
- Plant response rating, Velvetleaf [10, 19]: 6
- Plant response rating, Velvetleaf [10, 20]: 0
- Velvetleaf plant response rating [10, 21]: 0
- Velvetleaf plant response rating [10, 22]: 0
- Velvetleaf plant response rating [10, 23]: 0
- Velvetleaf plant response rating [10, 24]: 0
- Wheat plant response rating [11, 17]: 0
- Plant response rating, Wheat [11, 19]: 5
- Plant response rating, Wheat [11, 20]: 0
- Wheat plant response rating [11, 21]: 0
- Wheat plant response rating [11, 22]: 0
- Wheat plant response rating [11, 23]: 0
- Wheat plant response rating [11, 24]: 0
- Wild oats plant response rating [12, 17]: 0
- Plant response rating, Wild oats [12, 19]: 3
- Plant response rating, Wild oats [12, 20]: 0
- Wild oats plant response rating [12, 21]: 3
- Wild oats plant response rating [12, 22]: 5
- Wild oats plant response rating [12, 23]: 8
- Wild oats plant response rating [12, 24]: 0
- Nutsedge plant response rating [13, 17]: 0
- Plant response rating, Nutsedge [13, 19]: 0
- Plant response rating, Nutsedge [13, 20]: 0
- Nutsedge plant response rating [13, 21]: 0
- Nutsedge plant response rating [13, 22]: 0
- Nutsedge plant response rating [13, 23]: 0
- Nutsedge plant response rating [13, 24]: 0
- Plant response rating, Rice (0 to 10 scale, 0 is no effect, 10 is complete control) [14, 25]: 0
- Rice plant response rating (0 to 10 scale, 0 is no effect, 10 is complete control) [14, 26]: 0
- Rice plant response rating [14, 27]: 0
- Rice plant response rating [14, 28]: 0
- Plant response rating, S. Flatsedge (0 to 10 scale, 0 is no effect, 10 is complete control) [15, 25]: 0
- S. Flatsedge plant response rating (0 to 10 scale, 0 is no effect, 10 is complete control) [15, 26]: 0
- S. Flatsedge plant response rating [15, 27]: 0
- S. Flatsedge plant response rating [15, 28]: 0
- Plant response rating, Barnyardgrass (0 to 10 scale, 0 is no effect, 10 is complete control) [16, 25]: 0
- Barnyardgrass plant response rating (0 to 10 scale, 0 is no effect, 10 is complete control) [16, 26]: 0
- Barnyardgrass plant response rating [16, 27]: 0
- Barnyardgrass plant response rating [16, 28]: 0

— US6737383B1, “Herbicidal oxadiazolidines” (priority 1999, dated 2004)
